Test results as given in US12560591B2, “Methods of treatment with CD8 T cell-mediated immune therapy” (Providence Health & Services—Oregon, priority 2019, dated 2026).

Test system: CT26 tumors
Assay: CT26 tumor model: ALK5 inhibitor with chemoradiation (RT+5FU), tumor growth and survival
Type: in vivo, mouse
Details: CT26 tumor-bearing mice, LY added to RT+5FU, FIG. 1B
Protocol: FIGS. 1A-1D are a series of panels showing that the TGFβR1 antagonist LY2157299 enhances chemo-radiation efficacy dependent on CD8α^+ cells in CT26 tumors. FIG. 1A is a treatment schema in the CT26 tumor model. Six to eight week old BALB/c mice were implanted subcutaneously in the left flank with 2×10^5 CT26 tumor cells. Seven days following implant, animals were randomized based on tumor size, and vehicle control or LY2157299 compound were administered by oral gavage twice daily every 12 hours at 150 mg/kg for 7 consecutive days. At day 14, some mice received five consecutive radiation treatments of 5 Gy targeted to tumor tissue along with 25 mg/kg injections of 5-fluorouracil (5FU) chemotherapy administered intraperitoneally on days 14, 16, and 18. LY treatment groups resumed BID oral dosing from days 21-27. Mean tumor growth (i) and survival (ii) were assessed three times per week up to 100 days or death (FIG. 1B). […] Arrows identify pSMAD2^+CD8^+ cells in vehicle mice. […] NS=not significant, *=p<0.05, **=p<0.01, ***=p<0.001.
FIGS. 6A-6D are a series of panels showing generation of tumor-specific immune memory following tumor eradication with TGFβ inhibition with chemoradiation. […] The number of mice cured over the total number of mice in each group is indicated in the top right corner. One representative experiment is shown reflective of two independent experiments. Mice who eradicated their tumors were rechallenged with CT26 and 4T1 tumors. CT26 tumor cells were rechallenged on the opposite flank as from the original cured tumor. In FIG. 6D, 4T1 and CT26 tumor establishment and growth was followed for up to 60 days post re-challenge. The number of tumors rejected per total mice rechallenged in each tumor type is indicated in the top right portion of the graph. ***=p<0.001
Animal studies and cell culture: C57BL/6, BALB/c, CD8Cre, Lyz2Cre, and Foxp3-eGFP-CreERT2 mice were purchased from the Jackson Laboratories (Bar Harbor, Maine). ALK5flox/flox mice were a generous gift from Andrew Weinberg (Providence Cancer Center). All transgenic mice were on C57BL/6 background. CT26, MC38, 4T1 and MCA205-OVA tumor cells were grown in DMEM medium supplemented with 10% heat-inactivated fetal bovine serum and 1% penicillin-streptomycin to 60-90% confluence prior to tumor implantation. All cells were washed 2× with 1×PBS and implanted subcutaneously in a 100 μl volume of 1×PBS in the lower flanks. 1×10^5 MC38 cells, 2×10^5 CT26 cells, 5×10^4 4 T1 cells, and 5×10^6 MCA205-OVA cells were used for tumor induction. Tumors were measured 3×/week until they reached the survival end-point of 144 mm^2. […] Following single cell preparation, cells were washed and resuspended in FACS buffer (1×PBS, 1% BSA, 2 mM EDTA) and counted prior to FACS staining using a Guava EasyCyte cytometer (Millipore). […]

Cc1cccc(-c2nn3c(c2-c2ccnc4ccc(C(N)=O)cc24)CCC3)n1 [LY2157299]
median survival (150 mg/kg BID oral, p<0.01): 45 days | tumor growth: significantly slowed tumor growth
